Measurements reported in patent publication US20250327074A1 (SHAOXING INSTITUTE, ZHEJIANG UNIVERSITY, priority 2024, published 2025).

Experiments:
Type in all cases: cell-based
[1] = tested on: rare codon in EGFP reporter, HEK293T cells; assay: LC-MS recoding efficiency of rare codons in EGFP reporter
Protocol: (§1) The recoding translation system and the rare codon-bearing POI were co-transfected into HEK293T cells. Then, two methods were used to calculate the ncAA recoding rate: 1) LC-MS analysis: the protein of the POI mixture, including the fraction incorporated with ncAA and the fraction with NAA at rare codons, was purified by Ni2+-NTA beads and subjected to LC-MS analysis. The ncAA recoding rate was determined by the intensity of two fractions quantified by LC-MS. 2) TCO-PEG5000 mass tag labeling analysis: this method was suitable for quantifying the TetBu recoding rate in this work. When the protein mixture was incubated with TCO-PEG5000 mass tag, the protein incorporated with TetBu would be labeled by this mass tag and migrated much slower in SDS-PAGE.
(§2) When the recoding system (TetRS/PylTyyy) is co-expressed with a target protein carrying the recoding codon in HEK293T, the recoding codon can be translated into a natural amino acid by endogenous tRNA (Dec-tRNA), or recoding into TetBu by the engineered tRNA (Rec-tRNA), producing a mixture of protein byproducts (with a single-site mutation) and the target protein containing TetBu. Based on this, two methods were established to assess sense codon recoding efficiency: a) Liquid chromatography-mass spectrometry (LC-MS) for differentiates proteins based on molecular weight differences, and b) TCO-PEG5000 macromolecular label target proteins containing TetBu, which increases their molecular weight by 5 kDa. The shift in protein bands is detected via immunoblotting (FIG. 2).
(1) Transfection: Plasmids encoding the TetBu/PylTyyy recoding system (where xxx represents different codons and yyy represents different anticodons) were co-transfected with the plasmid mCherry-T2A-EGFP^N149XXX-6×His at a 1:1 (g:g) ratio. For a 10 cm dish, the total transfection mixture contained 20 μg DNA+[…] Lipofectamine 2000+2 mL Opti-MEM.
(2) Protein expression and purification: After 6 hours, the medium was replaced with fresh DMEM containing 200 μM TetBu for 40 hours to induce protein expression. Cells were lysed in 1 mL Modified RIPA Buffer, and the supernatant was purified using Ni-NTA beads.
(3) LC-MS analysis of recoding efficiency:Using a Waters Xevo G2-XS TOF Mass Spectrometer, the recoding efficiency of rare codons (CTA, GTA, CGT, CCG, GCG, ACG, and TCG) at the EGFP149 site was evaluated.
(2) Cell transfection and protein expression purification: HEK293T cells were seeded in 10 cm culture dishes and transfected at 60-70% confluency. For each transfection, […] of plasmid carrying mCherry-T2A-EGFPY151TCG-6×His was co-transfected with one of the following recoding system plasmids: chPhe_AcFRS/12×(U6-chPheTCGA), EcTyr_OmeYRS/12×(U6-EcTyrTCGA), or EcLeu_OmeYRS/12×(U6-EcLeuTCGA). After 6 hours, the medium was replaced with serine/glycine-free DMEM/F12 containing 500 μM of the respective unnatural amino acid. Following protein expression and purification, LC-MS was used to determine TCG recoding efficiency at position 151 of EGFP. Detailed transfection and purification protocols following section 2.2.1.2, with cell culture conditions in serine-free medium as described in Example 2.

[2] = tested on: FLucY255ACG/K529TCG mutant; assay: FLuc dual caged UAA decaging luminescence assay; settings: dual incorporation of ONBY with TCOK/PABK
Source text: To established a method for orthogonal activation control of proteins, two caged UAAs are incorporated site-specifically into the active pocket or adjacent sites of target proteins through the dual rare codon recoding strategy, wherein steric hindrance leads to the protein inactivation, followed by protein activation through photochemical or chemical decaging strategies. The TCG/ACG dual recoding system decodes TCG/ACG sites as serine/threonine in the absence of UAAs. During the screening of FLuc, the K529 and Y255 site are identified with minimal background upon serine incorporation and threonine incorporation respectively, which were subsequently used for dual caged UAA incorporation. Using the FLucY255ACG/K529TCG mutant as an example, the TCG recoding system decoding ONBY, the ACG recoding system decoding TCOK/PABK, and reporter genes were co-transfected into cells, followed by luminescence assay to evaluate protein activation.

[3] = tested on: EGFP F84TCG mutant; assay: EGFP F84TCG fluorescence activation by UAA
Source text: Using EGFP as an example, this example describes a general method for screening recoding sites and UAA types in protein activation regulated by UAA incorporation. In the absence of UAAs, the TCG recoding system decodes the TCG codon as serine (Ser). To maximize disruption towards protein function, we screened phenylalanine (Phe), tyrosine (Tyr), and tryptophan (Trp)—amino acids with the greatest structural divergence from Ser for potential incorporation. Following identification of Ser-substituted inactivation sites, we screened UAAs capable of rescuing protein activity, yielding optimal recoding system/UAA pairs (a-b of FIG. 22). […] This strategy was successfully extended to diverse proteins including fluorescent proteins (e.g., mCherry), enzymes (e.g., luciferase, kinases, peroxidases), and translation regulators (e.g., initiation factors, post-translational modification readers).

[4] = tested on: IL-1B, IL-2, IL-4, IL-6 bearing TCG codon, HEK293T cells; assay: TCO-PEG5000 mass tag labeling recoding efficiency in interleukin proteins; settings: TetRS/PylTCGA, 200 μM TetBu, serine/glycine-free
Protocol: as §1, §2
The recoding system and plasmids containing the TCG codon for the cytokines were co-transfected into HEK293T cells. Six hours post-transfection, the medium was replaced with serine/glycine-free DMEM/F12 medium supplemented with 200 μM TetBu. After 40 hours of protein expression, 500 μL of Modified RIPA lysis buffer was added to each well to lyse the cells. The TCO-PEG5000 labeling method was used to assess the recoding efficiency.

[5] = tested on: HEK293T cells proteome; assay: Proteome background incorporation, TCO-biotin streptavidin dot blot; settings: CTA and TCG codon groups among 7 rare codons; 200 μM TetBu
Source text: When the TetRS/PylTyyy recoding system is expressed in HEK293T, it recodes endogenous genomic codons into TetBu, generating a modified proteome containing TetBu. The IEDDA reaction between TetBu and trans-cyclooctene (TCO) enables biotinylation of TetBu-containing proteins via TCO-Biotin. Streptavidin dot blot detects biotin signals, where signal intensity correlates with TetBu incorporation levels (FIG. 3, right).
1.3.2 Screening of Rare Codons with Low Background Incorporation • (1) Intracellular expression of the recoding system: Plasmids encoding TetBu/PylTyyy (yyy=anticodons for TCG, ACG, GCG, CCG, CGT, GTA, CTA) were transfected using Lipofectamine 2000. After 6 hours, cells were treated with fresh DMEM±200 μM TetBu for 40 hours. Cells were lysed in 100 μL Modified RIPA Buffer to obtain whole-cell lysates.
The reaction system was prepared as described in Table 3. Reaction products were mixed with 7 μL bromophenol blue-free 4×SDS loading buffer, boiled at 100° C. for 10 min, and analyzed via streptavidin dot blot.
Samples were spotted onto a nitrocellulose membrane and air-dried at room temperature for 15 min. The membrane was washed with 10 mL TBST (80 rpm, 5 min) three times, discarding the supernatant each time. Blocking was performed with 10 mL TBST containing 5% non-fat milk for 1 h, followed by three additional TBST washes (10 mL, 80 rpm, 5 min each). […]

[6] = tested on: Ser-tRNACGA knockout HEK293T cell lines 1A8, 2A3, 3A12, 4C23; assay: LC-MS TCG recoding efficiency in Ser-tRNACGA knockout cell lines; settings: for efficiency in recoding TCG codon at position 151 of EGFP: single-copy recoding tRNA
Source text: Four sgRNAs targeting Ser-tRNACGA were designed (Table 6). CRISPR/Cas9 was used to generate knockout polyclonal populations, followed by FACS sorting to isolate monoclonal lines. Sequencing confirmed successful editing in four knockout strains: 1A8, 2A3, 3A12, and 4C23 (FIG. 6).
This example evaluates the TCG codon recoding capability of the knockout cell lines using the TetRS/PylTCGA recoding system as a model.

[7] = TCG at position 151 of EGFP, 12× tRNA, serine/glycine-free medium, 500 μM unnatural amino acid

CC(=O)NCCCC[C@H](N)C(=O)O [AcK]
recoding efficiency [1, 7]: 78%

CC(C)(C)OC(=O)NCCCC[C@H](N)C(=O)O [BocK, ε-N-tert-butyloxycarbonyllysine]
recoding efficiency [1, 7]: 82%

CCCC(=O)NCCCC[C@H](N)C(=O)O [Kbu]
recoding efficiency [1, 7]: 74%

C/C=C/C(=O)NCCCC[C@H](N)C(=O)O [Kcr, ε-N-crotonyl-lysine]
recoding efficiency [1, 7]: 84%

CCC(=O)NCCCC[C@H](N)C(=O)O [Kpr]
recoding efficiency [1, 7]: 79%

N[C@@H](Cc1ccc(OCc2ccccc2[N+](=O)[O-])cc1)C(=O)O [ONBY]
FLuc activity in the presence of both caged UAAs, before decaging [2]: nearly complete inactivation

COc1ccc(C[C@H](N)C(=O)O)cc1 [OmeY, O-methyl-tyrosine]
concentration with detectable EGFP activation [3]: 0.00001 mM | time to fluorescence activation after UAA delivery [3]: ≤ 1 min | fluorescence enhancement upon UAA addition versus no UAA ([3]; TCG-recoding system decoding OmeY): > 100 fold

[N-]=[N+]=Nc1ccc(COC(=O)NCCCC[C@H](N)C(=O)O)cc1 [PABK]
FLuc activity in the presence of both caged UAAs, before decaging [2]: nearly complete inactivation

N[C@@H](CCCCNC(=O)OC1/C=C/CCCCC1)C(=O)O (stereo partly drawn) [TCOK]
FLuc activity in the presence of both caged UAAs, before decaging [2]: nearly complete inactivation

CCCCc1nnc(-c2cccc(C[C@H](N)C(=O)O)c2)nn1 [TetBu, (S)-2-amino-3-(3-(6-butyl-1,2,4,5-tetrazin-3-yl)phenyl)propanoic acid]
recoding efficiency ([1]; ACG codon at EGFP149 site, TetRS/PylTyyy, 200 μM TetBu, HEK293T): 7.1% | recoding efficiency ([1]; TCG codon at EGFP149 site, TetRS/PylTyyy, 200 μM TetBu, HEK293T): 8.5% | TetBu recoding efficiency ([4]; position 62 of IL-2): 80.8% | TetBu recoding efficiency ([4]; position 87 of IL-6): 83.9% | TetBu recoding efficiency ([4]; position 121 of IL-4): 99.3% | TetBu recoding efficiency ([4]; position 205 of IL-1B): 78.10% | proteome-wide background TetBu incorporation (biotin signal intensity) [5]: lowest biotin signal intensity | efficiency in recoding TCG codon at position 151 of EGFP ([6]; knockout cell line 1A8): 61% | efficiency in recoding TCG codon at position 151 of EGFP ([6]; knockout cell line 2A3): 51% | efficiency in recoding TCG codon at position 151 of EGFP ([6]; knockout cell line 3A12): 58% | efficiency in recoding TCG codon at position 151 of EGFP ([6]; knockout cell line 4C23): 68% | improvement of TCG recoding compared to HEK293T cells ([6]; strain 4C23): 1.4 fold

N[C@@H](Cc1ccc(OS(=O)(=O)O)cc1)C(=O)O [sTyr]
recoding efficiency [1, 7]: 85%
